In US20080306040A1, “Antibacterial amide macrocycles VII” (priority 2005, published 2008):
Counter-ions that a name gives are not always drawn. Like-named read-outs stand apart in the source and are kept apart here.

How the values were obtained:
[1] = system: S. aureus 133; assay: Minimum inhibitory concentration (MIC), S. aureus 133; type: cell-based
Protocol: (§1) Determination of the Minimum Inhibitory Concentration (MIC)
(§2) The minimum inhibitory concentration (MIC) is the minimum concentration of an antibiotic with which the growth of a test microbe is inhibited over 18-24 h. The inhibitor concentration can thereby be determined by standard microbiological methods (see, for example, The National Committee for Clinical Laboratory Standards. Methods for dilution antimicrobial susceptibility tests for bacteria that grow aerobically; approved standard-fifth edition. NCCLS document M7-A5 [ISBN 1-56238-394-9]. NCCLS, 940 West Valley Road, Suite 1400, Wayne, Pa. 19087-1898 USA, 2000). The MIC of the compounds of the invention is determined in the liquid dilution test on the 96-well microtiter plate scale. The bacterial microbes are cultivated in a minimal medium (18.5 mM Na2HPO4, 5.7 mM KH2PO4, 9.3 mM NH4Cl, 2.8 mM MgSO4, 17.1 mM NaCl, 0.033 μg/ml of thiamine hydrochloride, 1.2 μg/ml of nicotinic acid, 0.003 μg/ml of biotin, 1% glucose, 25 μg/ml of each proteinogenic amino acid with the exception of phenylalanine; [H.-P. Kroll; unpublished]) with addition of 0.4% BH broth (test medium). In the case of Enterococcus faecium L4001, heat-inactivated fetal calf serum (FCS; GibcoBRL, Germany) is added to the test medium in a final concentration of 10%. Overnight cultures of the test microbes are diluted to an OD578 of 0.001 (to 0.01 in the case of enterococci) in fresh test medium, and incubated 1:1 with dilutions of the test substances (1:2 dilution steps) in test medium (200 μl final volume). The cultures are incubated at 37° C. for 18-24 hours; enterococci in the presence of 5% CO2.
(§3) The lowest substance concentration in each case at which no visible bacterial growth occurs any longer is defined as the MIC.
(§4) Alternative Method for Determining the Minimum Inhibitory Concentration (MIC)
The minimum inhibitory concentration (MIC) is the minimum concentration of an antibiotic with which the growth of a test microbe is inhibited over 18-24 h. The inhibitor concentration can thereby be determined by standard microbiological methods with modified medium in an agar dilution test (see, for example, The National Committee for Clinical Laboratory Standards. Methods for dilution anti-microbial susceptibility tests for bacteria that grow aerobically; approved standard-fifth edition. NCCLS document M7-A5 [ISBN 1-56238-394-9]. NCCLS, 940 West Valley Road, Suite 1400, Wayne, Pa. 19087-1898 USA, 2000). The bacterial microbes are cultivated on 1.5% agar plates which contain 20% defibrinated horse blood. The test microbes, which are incubated overnight on Columbia blood agar plates (Becton-Dickinson), are diluted in PBS, adjusted to a microbe count of about 5×10^5 microbes/ml and placed dropwise (1-3 μl) on test plates. […]

[2] = system: S. aureus T17; assay: Minimum inhibitory concentration (MIC), biphenomycin-resistant S. aureus T17; type: cell-based; conditions: for MIC: Staphylococcus aureus, T17
Protocol: as §1, §2, §3, §4
The minimum inhibitory concentration (MIC) is the minimum concentration of an antibiotic with which the growth of a test microbe is inhibited over 18-24 h. The inhibitor concentration can thereby be determined by standard microbiological methods with modified medium in an agar dilution test (see, for example, The National Committee for Clinical Laboratory Standards. Methods for dilution anti-microbial susceptibility tests for bacteria that grow aerobically; approved standard-fifth edition. NCCLS document M7-A5 [ISBN 1-56238-394-9]. NCCLS, 940 West Valley Road, Suite 1400, Wayne, Pa. 19087-1898 USA, 2000). The bacterial microbes are cultivated on 1.5% agar plates which contain 20% defibrinated horse blood. The test microbes, which are incubated overnight on Columbia blood agar plates (Becton-Dickinson), are diluted in PBS, adjusted to a microbe count of about 5×10^5 microbes/ml and placed dropwise (1-3 μl) on test plates. The test substances comprise different dilutions of the test substances (1:2 dilution steps). The cultures are incubated at 37° C. in the presence of 5% CO2 for 18-24 hours.
The lowest substance concentration in each case at which no visible bacterial growth occurs any longer is defined as the MIC and is reported in μg/ml.
The S. aureus strain T17 is isolated in vivo. CFW1 mice are infected intraperitoneally with 4×10^7 S. aureus 133 cells per mouse. 0.5 h after the infection, the animals are treated intravenously with 50 mg/kg of biphenomycin B. The kidneys are removed from the surviving animals on day 3 after the infection. […]

[3] = target: S. aureus 133 Translation; assay: S. aureus in vitro transcription-translation assay (firefly luciferase, S30 extract); type: biochemical; conditions: 50% inhibition of the translation of firefly luciferase
Source text: In Vitro Transcription-Translation with S. aureus Extracts
Construction of an S. aureus Luciferase Reporter Plasmid
In order to construct a reporter plasmid which can be used in an in vitro transcription-translation assay from S. aureus the plasmid pBESTluc (Promega Corporation, USA) is used. The E. coli tac promoter present in this plasmid in front of the firefly luciferase is replaced with the capA1 promoter with corresponding Shine-Dalgarno sequence from S. aureus. The primers CAPF or 5′-[…]-[…]-3′ and CAPRev 5′-[…]-3′ are used for this. The primer CAPFor contains the capA1 promoter, the ribosome binding site and the 5′ region of the luciferase gene. After PCR using pBESTluc as template it is possible to isolate a PCR product which contains the firefly luciferase gene with the fused capA1 promoter. This is, after restriction with ClaI and HindIII, ligated into the vector pBESTluc which has likewise been digested with ClaI and HindIII. The resulting plasmid p1a can be replicated in E. coli and be used as template in the S. aureus in vitro transcription-translation test.
Preparation of S30 Extracts from S. aureus
Six litres of BHI medium are inoculated with a 250 ml overnight culture of an S. aureus strain and allowed to grow at 37° C. up to an OD600 nm of 2-4. The cells are harvested by centrifugation and washed in 500 ml of cold buffer A (10 mM Tris acetate, pH 8.0, 14 mM magnesium acetate, 1 mM DTT, […]). After renewed centrifugation, the cells are washed in 250 ml of cold buffer A with 50 mM KCl, and the resulting pellets are frozen at −20° C. for 60 min. The pellets are thawed on ice in 30 to 60 min and taken up to a total volume of 99 ml in buffer B (10 mM Tris acetate, pH 8.0, 20 mM magnesium acetate, 1 mM DTT, 50 mM KCl). 1.5 ml portions of lysostaphin (0.8 mg/ml) in buffer B are provided in 3 precooled centrifuge cups and each mixed with 33 ml of the cell suspension. The samples are incubated at 37° C., for 45 to 60 min shaking occasionally, before 150 μl of a 0.5 M DTT solution are added. The lysed cells are centrifuged at 30 000×g and 4° C. for 30 min. The cell pellet is taken up in buffer B and then centrifuged again under the same conditions, and the collected supernatants are combined. The supernatants are centrifuged again under the same conditions, and 0.25 volumes of buffer C (670 mM Tris acetate, pH 8.0, 20 mM magnesium acetate, 7 mM Na3 phosphoenolpyruvate, 7 mM DTT, 5.5 mM ATP, 70 μM amino acids (complete from Promega), 75 μg of pyruvate kinase (Sigma, Germany))/ml are added to the upper ⅔ of the supernatant. […]
The inhibition of protein biosynthesis of the compounds can be shown in an in vitro transcription-translation assay. […] The activity of the resulting luciferase can be detected by luminescence measurement. […]

[4] = system: S. aureus RN4220; assay: Spontaneous resistance rate, S. aureus RN4220; type: cell-based; conditions: agar plate containing 2 μg/ml of biphenomycin B (10×MIC), 37° C. overnight
Protocol: The spontaneous resistance rates for the compounds of the invention are determined as follows: the bacterial microbes are cultivated in 30 ml of a minimal medium (18.5 mM Na2HPO4, 5.7 mM KH2PO4, 9.3 mM NH4Cl, 2.8 mM MgSO4,17.1 mM NaCl, 0.033 μg/ml of thiamine hydrochloride, 1.2 μg/ml of nicotinic acid, 0.003 μg/ml of biotin, 1% glucose, 25 μg/ml of each proteinogenic amino acid with the addition of 0.4% BH broth) at 37° C. over-night, centrifuged at 6000×g for 10 min and resuspended in 2 ml of a phosphate-buffered physiological NaCl solution (about 2×10^9 microbes/ml). […] The resulting colonies (cfu) are counted.
The S. aureus strain RN4220Bi^R is isolated in vitro. For this purpose, 100 μl portions of an S. aureus RN4220 cell suspension (about 1.2×10^8 cfu/ml) are plated out on an antibiotic-free agar plate (18.5 mM Na2HPO4, 5.7 mM KH2PO4, 9.3 mM NH4Cl, 2.8 mM MgSO4, 17.1 mM NaCl, 0.033 μg/ml of thiamine hydrochloride, 1.2 μg/ml of nicotinic acid, 0.003 μg/ml of biotin, 1% glucose, 25 μg/ml of each proteinogenic amino acid with the addition of 0.4% BH broth and 1% agarose) and on an agar plate containing 2 μg/ml of biphenomycin B (10×MIC), and incubated at 37° C. overnight. Whereas about […] cells grow on the antibiotic-free plate, about 100 colonies grow on the antibiotic-containing plate, corresponding to a resistance rate of 1×10^−5. […]

[5] = system: S. aureus RN4220Bi^R; assay: MIC against biphenomycin-resistant S. aureus RN4220Bi^R; type: cell-based; conditions: colony isolated in vitro from antibiotic-containing plate
Protocol: The S. aureus strain RN4220Bi^R is isolated in vitro. For this purpose, 100 μl portions of an S. aureus RN4220 cell suspension (about 1.2×10^8 cfu/ml) are plated out on an antibiotic-free agar plate (18.5 mM Na2HPO4, 5.7 mM KH2PO4, 9.3 mM NH4Cl, 2.8 mM MgSO4, 17.1 mM NaCl, 0.033 μg/ml of thiamine hydrochloride, 1.2 μg/ml of nicotinic acid, 0.003 μg/ml of biotin, 1% glucose, 25 μg/ml of each proteinogenic amino acid with the addition of 0.4% BH broth and 1% agarose) and on an agar plate containing 2 μg/ml of biphenomycin B (10×MIC), and incubated at 37° C. overnight. Whereas about […] cells grow on the antibiotic-free plate, about 100 colonies grow on the antibiotic-containing plate, corresponding to a resistance rate of 1×10^−5. Some of the colonies grown on the antibiotic-containing plate are tested for the biphenomycin B MIC. One colony with a MIC of >50 μM is selected for further use, and the strain is referred to as RN4220Bi^R.

[6] = system: S. aureus 133; assay: Systemic infection with S. aureus 133 (mouse sepsis model); type: in vivo; conditions: female CFW1 mice, i.p. infection, i.v. therapy 30 minutes after infection, survival over 6 days
[7] = Staphylococcus aureus, 133, read-out: MIC S. aureus 133

Compound	IC50 [3] [nM]	MIC ([2]; biphenomycin-resistant strain) [µg/mL]	MIC [1, 7] [µg/mL]	also measured
NC[C@H](O)C[C@@H]1NC(=O)[C@@H](N)Cc2cc(ccc2O)-c2ccc(O)c(c2)C[C@@H](C(=O)O)NC1=O [Biphenomycin B, biphenomycin B, reference compound]	1500			MIC S. aureus 133 [1]: <0.03 µg/mL; MIC S. aureus T17 ([2]; biphenomycin-resistant strain): >32 µg/mL; MIC of selected colony (strain T17) ([2]; colony isolated in vivo from kidney of treated mice): > 50 µM; resistance rate [4]: 1×10^−5; MIC of selected colony (strain RN4220Bi^R) [5]: > 50 µM
NCCC[C@H](N)CNC(=O)C[C@H](CCCN)NC(=O)C[C@@H]1Cc2cccc(c2)-c2ccc(O)c(c2)C[C@H](N)C(=O)N[C@@H](CCCN)C(=O)N1 [Example 1, (3S)-6-Amino-3-({[(8S11,S14S)-14-amino-11-(3-aminopropyl)-17-hydroxy-10,13-dioxo-9,12-diazatricyclo[14.3.1.1^2,6]henicosa-1(20),2(21),3,5,16,18-hexaen-8-yl]acetyl{amino)-N-[(2S)-2,5-diaminopentyl]hexanamidepentahydrochloride]	350	2		MIC ([1]; Staphylococcus aureus, 133; read-out: MIC S. aureus 133): 2 µg/mL
NCCC[C@H](NC(=O)C[C@@H]1Cc2cccc(c2)-c2ccc(O)c(c2)C[C@H](N)C(=O)N[C@@H](CCCN)C(=O)N1)C(=O)NCCN [Example 2, N^2-{[(8S,11S,14S)-14-Amino-11-(3-aminopropyl)-17-hydroxy-10,13-dioxo-9,12-diazatricyclo[14.3.1.1^2,6]henicosa-1(20), 2(21),3,5,5,16,18-hexaen-8-yl]acetyl}-N-(2-aminoethyl)-L-ornithinamide tetrahydrochloride]				therapeutic activity ED100 [6]: 1.25 mg/kg
NCCC[C@H](N)CNC(=O)C[C@@H]1Cc2cccc(c2)-c2ccc(O)c(c2)C[C@H](N)C(=O)N[C@@H](CCCN)C(=O)N1 [Example 5, 2-[(8S,11S,14S)-14-Amino-11-(3-aminopropyl)-17-hydroxy-10,13-dioxo-9,12-diazatricyclo[14.3.1.1^2,6]henicosa-1(20),2(21),3,5,16,18-hexaen-8-yl]-N-[(2S)-2,5-diaminopentyl]acetamide tetrahydrochloride]	700	2	2	
NCCC[C@H](N)CNC(=O)C[C@@H](N)CCCNC(=O)[C@H](CCCN)NC(=O)C[C@@H]1Cc2cccc(c2)-c2ccc(O)c(c2)C[C@H](N)C(=O)N[C@@H](CCCN)C(=O)N1 [Example 7, (3S)-3-Amino-6-[(N^2-{[(8S,11S,14S)-14-amino-11-(3-aminopropyl)-17-hydroxy-10,13-dioxo-9,12-diazatricyclo[14.3.1.1^2,6]henicosa-1(20), 2(21), 3,5,16,18-hexaen-8-yl]acetyl}-L-ornithyl)amino]-N-[(2S)-2,5-diaminopentyl]hexanamide hexahydrochloride]	200	2	2	
